Test results from PMC7341856 (Scientific Reports, 2020).
Converted amounts (≈) assume the structure as drawn. “And” between values parts separate entries of the source, which are not always exact repeats. Equal values may be shown once.

Key:
[1] = target: T1, S. aureus α-hemolysin (αHL) (Staphylococcus aureus, UniProt P09616); details: sheep
[2] = system: S. aureus NCTC 5655; experiment: microbe, parasite or virus in culture; type: cell-based, Staphylococcus aureus; details: for MBC: Staphylococcus aureus, NCTC5655, 24 h, read-out: Minimal bactericidal concentration MBC
[3] = target: T1, S. aureus α-hemolysin (αHL); experiment: cell-based
[4] = system: S. aureus NCTC 5655; experiment: microbe, parasite or virus in culture; type: cell-based; details: Staphylococcus aureus, NCTC5655, Erythrocyte, in Ovis aries, read-out: IC50 (antihemolytic)
[5] = system: S. aureus 8325-4; experiment: microbe, parasite or virus in culture; type: cell-based, Staphylococcus aureus; details: for MBC: Staphylococcus aureus, 83254, 24 h, read-out: Minimal bactericidal concentration MBC
[6] = system: erythrocyte membrane; type: cell-based, sheep
[7] = system: S. aureus 8325-4; experiment: microbe, parasite or virus in culture; type: cell-based; details: Staphylococcus aureus, 83254, Erythrocyte, in Ovis aries, read-out: IC50 (antihemolytic)

T1 sequence (P09616 27-319 limits assumed): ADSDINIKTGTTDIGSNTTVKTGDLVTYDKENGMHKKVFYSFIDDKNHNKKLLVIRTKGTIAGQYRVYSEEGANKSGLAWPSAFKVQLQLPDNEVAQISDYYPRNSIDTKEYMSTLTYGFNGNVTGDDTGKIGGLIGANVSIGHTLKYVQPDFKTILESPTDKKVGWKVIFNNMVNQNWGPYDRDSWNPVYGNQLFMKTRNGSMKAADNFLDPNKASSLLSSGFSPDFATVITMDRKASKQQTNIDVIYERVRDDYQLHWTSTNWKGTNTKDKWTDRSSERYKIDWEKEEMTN

Row | Structure (SMILES) | increase of IC50 after washing of erythrocytes [1] | Minimal bactericidal concentration MBC [2] [µM] | MBC [2] [µM] | IC50 [3] [µM] | IC50 [4] [µM] | Minimal bactericidal concentration MBC [5] [µM] | MBC [5] [µM] | order parameter S/S0 [6] | IC50 [7] [µM]
1 | O=C(OC1OC2COC(=O)c3cc(Oc4c(C(=O)O)cc(O)c(O)c4O)c(O)c(O)c3-c3c(cc(O)c(O)c3O)C(=O)OC2C(O)C1OC(=O)c1cc(O)c(O)c(O)c1)c1cc(O)c(O)c(O)c1 [Compound T4, 1,2-di-O-galloyl-4,6-valoneoyl-β-D-glucose] | approximately 40 fold | 75 (≈ 71.6 µg/mL) | 100 (≈ 95.5 µg/mL) | 14.5 ± 1.1 | 59.5 ± 9.6 | 75 (≈ 71.6 µg/mL) | 100 (≈ 95.5 µg/mL) | 1.074 ± 0.059 and 0.885 ± 0.073 | 60.4 ± 3.3
2 | O=C(OCC1OC(OC(=O)c2cc(O)c(O)c(O)c2)C(OC(=O)c2cc(O)c(O)c(O)c2)C(OC(=O)c2cc(O)c(O)c(O)c2)C1OC(=O)c1cc(O)c(O)c(O)c1)c1cc(O)c(O)c(O)c1 [Compound T2, 1,2,3,4,5-penta-O-galloyl-β-D-glucose] |  |  | 50 (≈ 47 µg/mL) | 3.52 ± 1.37 | 13 ± 1.18 |  | 75 (≈ 70.6 µg/mL) | 1.267 ± 0.0398 and 0.662 ± 0.072 | 22.4 ± 2.8
3 | O=C(OCC1OC(OC(=O)c2cc(O)c(O)c(O)c2)C(OC(=O)c2cc(O)c(O)c(O)c2)C(OC(=O)c2cc(O)c(O)c(OC(=O)c3cc(O)c(O)c(O)c3)c2)C1OC(=O)c1cc(O)c(O)c(O)c1)c1cc(O)c(O)c(OC(=O)c2cc(O)c(O)c(O)c2)c1 [Compound T1, 3,6-bis-O-di-O-galloyl-1,2,4-tri-O-galloyl-β-D-glucose] |  |  | 25 (≈ 31.1 µg/mL) | 2.94 ± 1.45 | 7.26 ± 0.29 |  | 50 (≈ 62.2 µg/mL) |  | 8.7 ± 0.81
4 | O=C(OC1C(O)C(CO)OC2OC(=O)c3cc(Oc4c(C(=O)O)cc(O)c(O)c4O)c(O)c(O)c3-c3c(cc(O)c(O)c3O)C(=O)OC21)c1cc(O)c(O)c(O)c1 [Compound T3, 3-O-galloyl-1,2-valoneoyl-β-D-glucose] | approximately 40 fold |  | 100 (≈ 80.3 µg/mL) | 27.5 ± 1.06 | 90.6 ± 22.7 |  | 100 (≈ 80.3 µg/mL) | 0.947 ± 0.028 and 0.911 ± 0.042 | 52.2 ± 1.2
